Source: ChEMBL document CHEMBL5154782, “Discovery of Potent PROTACs Targeting EGFR Mutants through the Optimization of Covalent EGFR Ligands” (J Med Chem, 2022)

Legend:
[1] = molecular target: von Hippel-Lindau disease tumor suppressor/Epidermal growth factor receptor (Homo sapiens, UniProt P00533+P40337, L858R/T790M); assay: Protac activity at VHL/EGFR L858R/T790M mutant (unknown origin) assessed as inhibition of EGFR incubated for 40 mins in presence of ATP by Kinase Glo luminescence assay; format: protein assay
NCI-H1975 = assay: Antiproliferative activity against human NCI-H1975 cells expressing EGFR L858R/T790M mutant assessed as inhibition of cell proliferation incubated for 72 hrs by MTT assay; format: functional, cell-based; details: NCI-H1975, 72 h
HCC827 [2] = assay: Antiproliferative activity against human HCC827 cells expressing EGFR deletion19 mutant assessed as inhibition of cell proliferation incubated for 72 hrs by MTT assay; format: functional, cell-based; details: HCC827, 72 h
[3] = tested on: von Hippel-Lindau disease tumor suppressor/Epidermal growth factor receptor (Homo sapiens), P00533+P40337 [L858R,T790M]; assay: Protac activity at VHL/EGFR L858R/T790M mutant in human NCI-H1975 cells assessed as induction of EGFR degradation at 100 nM incubated for 24 hrs by Western blot analysis relative to control; format: cell-based
[4] = tested on: von Hippel-Lindau disease tumor suppressor/Epidermal growth factor receptor (Homo sapiens), P00533+P40337 [L858R,T790M]; assay: Protac activity at VHL/EGFR L858R/T790M mutant in human NCI-H1975 cells assessed as induction of EGFR degradation at 1000 nM incubated for 24 hrs by Western blot analysis relative to control; format: cell-based
[5] = tested on: von Hippel-Lindau disease tumor suppressor/Epidermal growth factor receptor (Homo sapiens), P00533+P40337 [L858R,T790M]; assay: Protac activity at VHL/[…] cells assessed as induction of EGFR degradation at 100 nM incubated for 24 hrs by Western blot analysis relative to control; format: cell-based
[6] = tested on: von Hippel-Lindau disease tumor suppressor/Epidermal growth factor receptor (Homo sapiens), P00533+P40337 [L858R,T790M]; assay: Protac activity at VHL/[…] cells assessed as induction of EGFR degradation at 1000 nM incubated for 24 hrs by Western blot analysis relative to control; format: cell-based
A-431 = assay: Antiproliferative activity against human A-431 cells expressing EGFR wildtype assessed as inhibition of cell proliferation incubated for 72 hrs by MTT assay; format: functional, cell-based; details: A-431, 72 h
[7] = tested on: von Hippel-Lindau disease tumor suppressor/Epidermal growth factor receptor (Homo sapiens), P00533+P40337 [L858R,T790M]; assay: Protac activity at VHL/EGFR L858R/T790M mutant in human NCI-H1975 cells assessed as induction of EGFR degradation at 10 nM incubated for 24 hrs by Western blot analysis relative to control; format: cell-based
[8] = tested on: von Hippel-Lindau disease tumor suppressor/Epidermal growth factor receptor (Homo sapiens), P00533+P40337 [UNDEFINED MUTATION]; assay: Protac activity at VHL/EGFR/deletion19 in human HCC827 cells assessed as induction of EGFR degradation at 3 nM incubated for 24 hrs by Western blot analysis relative to control; format: cell-based
[9] = tested on: von Hippel-Lindau disease tumor suppressor/Epidermal growth factor receptor (Homo sapiens), P00533+P40337 [UNDEFINED MUTATION]; assay: Protac activity at VHL/EGFR/deletion19 in human HCC827 cells assessed as induction of EGFR degradation at 30 nM incubated for 24 hrs by Western blot analysis relative to control; format: cell-based
HCC827 [10] = assay: Antiproliferative activity against human […] assessed as inhibition of cell proliferation incubated for 72 hrs by MTT assay; format: functional, cell-based; details: HCC827, 72 h

| Structure (SMILES) | IC50 [1] [nM] | IC50 (NCI-H1975) [nM] | IC50 (HCC827 [2]) [nM] | Activity [3] [%] | Activity [4] [%] | Activity [5] [%] | Activity [6] [%] | IC50 (A-431) [nM] | Activity [7] [%] | Activity [8] [%] | Activity [9] [%] | IC50 (HCC827 [10]) [nM] |
| --- | --- | --- | --- | --- | --- | --- | --- | --- | --- | --- | --- | --- |
| COc1cc(N2CCN(C)CC2)c(NC(=O)/C(C#N)=C/C(C)(C)NC(=O)CCCCCC(=O)N[C@H](C(=O)N2C[C@H](O)C[C@H]2C(=O)NCc2ccc(-c3scnc3C)cc2)C(C)(C)C)cc1Nc1nccc(-c2cn(C)c3ccccc23)n1 | > 10000 | 5790 | 1390 |  |  |  |  |  |  |  |  |  |
| COc1cc(N(C)CCN(C)C)c(NC(=O)/C=C/CN(C)CCN(C)C(=O)CCCC(=O)N[C@H](C(=O)N2C[C@H](O)C[C@H]2C(=O)NCc2ccc(-c3scnc3C)cc2)C(C)(C)C)cc1Nc1nccc(-c2cn(C)c3ccccc23)n1 |  | 2760 | 150 |  |  |  |  |  |  |  |  |  |
| C=CC(=O)Nc1cc(Nc2nccc(-c3cn(C)c4ccccc34)n2)c(OC)cc1N(CCCCCCC(=O)NCCCCCCC(=O)N[C@H](C(=O)N1C[C@H](O)C[C@H]1C(=O)NCc1ccc(-c2scnc2C)cc1)C(C)(C)C)CCN(C)C |  | 730 | 110 | < 20 | < 20 | < 20 | < 20 |  |  |  |  |  |
| COc1cc(N(C)CCN(C)C)c(NC(=O)/C=C/CN(C)CCCCCCCC(=O)N[C@H](C(=O)N2C[C@H](O)C[C@H]2C(=O)NCc2ccc(-c3scnc3C)cc2)C(C)(C)C)cc1Nc1nccc(-c2cn(C)c3ccccc23)n1 |  | 640 | 67 | < 20 | < 20 | < 20 | 25 |  |  |  |  |  |
| CN1CCN(c2ccc(Nc3ncc4nc(Nc5ccccc5)n(C5CCCC5)c4n3)cc2)CC1 |  | 342 | 0.93 |  |  |  |  |  |  |  |  |  |
| C=CC(=O)N1CCC(n2c(Nc3ccccc3)nc3cnc(Nc4ccc(N5CCN(C)CC5)nc4)nc32)CC1 |  | 290 | 3.05 |  |  |  |  |  |  |  |  |  |
| COc1cc(N(C)CCN(C)C)c(NC(=O)/C(C#N)=C/C(C)(C)NC(=O)CCCCCCC(=O)N[C@H](C(=O)N2C[C@H](O)C[C@H]2C(=O)NCc2ccc(-c3scnc3C)cc2)C(C)(C)C)cc1Nc1nccc(-c2cn(C)c3ccccc23)n1 | 857 | 2360 | 544 | < 20 | < 20 | < 20 | 26 |  |  |  |  |  |
| CCC(=O)N1CCC[C@H](n2c(Nc3ccccc3)nc3cnc(Nc4ccc(N5CCN(C)CC5)cc4)nc32)C1 |  | 1170 | 2.48 |  |  |  |  |  |  |  |  |  |
| C=CC(=O)Nc1cccc(-n2c(Nc3ccccc3)nc3cnc(Nc4ccc(N5CCN(C)CC5)cc4)nc32)c1 |  | 41 | 0.38 |  |  |  |  |  |  |  |  |  |
| COc1cc(N(C)CCN(C)C)c(NC(=O)/C=C/CN(C)CCN(C)C(=O)CCCCCCC(=O)N[C@H](C(=O)N2C[C@H](O)C[C@H]2C(=O)NCc2ccc(-c3scnc3C)cc2)C(C)(C)C)cc1Nc1nccc(-c2cn(C)c3ccccc23)n1 |  | 1690 | 130 | < 20 | < 20 | < 20 | 24 | > 10000 |  |  |  |  |
| C=CC(=O)Nc1cc(Nc2nccc(-c3cn(C)c4ccccc34)n2)c(OC)cc1N(CCCCCCC(=O)N[C@H](C(=O)N1C[C@H](O)C[C@H]1C(=O)NCc1ccc(-c2scnc2C)cc1)C(C)(C)C)CCN(C)C |  | 760 | 75 | < 20 | < 20 | < 28 | 34 | 1550 |  |  |  |  |
| C=CC(=O)N1CCC(n2c(Nc3ccccc3)nc3cnc(Nc4ccc(N5CCN(C)CC5)cc4)nc32)CC1 |  | 360 | 2.19 |  |  |  |  |  |  |  |  |  |
| COc1cc(N(C)CCN(C)C)c(NC(=O)/C=C/CN(C)CCN(C)C(=O)CCCCCC(=O)N[C@H](C(=O)N2C[C@H](O)C[C@H]2C(=O)NCc2ccc(-c3scnc3C)cc2)C(C)(C)C)cc1Nc1nccc(-c2cn(C)c3ccccc23)n1 |  | 1470 | 140 | < 20 | < 20 | < 20 | 25 |  |  |  |  |  |
| C=CC(=O)N1CC[C@@H](n2c(Nc3ccccc3)nc3cnc(Nc4ccc(N5CCN(C)CC5)cc4)nc32)C1 |  | 290 | 1.16 |  |  |  |  |  |  |  |  |  |
| C=CC(=O)Nc1cc(Nc2nccc(-c3cn(C)c4ccccc34)n2)c(OC)cc1N(CCCCCCC(=O)NCCOCCOCC(=O)N[C@H](C(=O)N1C[C@H](O)C[C@H]1C(=O)NCc1ccc(-c2scnc2C)cc1)C(C)(C)C)CCN(C)C |  | 800 | 683 | < 20 | < 20 | 23 | 25 |  |  |  |  |  |
| COc1cc(N2CCN(CC(=O)NCCCCCCC(=O)N[C@H](C(=O)N3C[C@H](O)C[C@H]3C(=O)NCc3ccc(-c4scnc4C)cc3)C(C)(C)C)CC2)c(NC(=O)/C(C#N)=C/C2CC2)cc1Nc1nccc(-c2cn(C)c3ccccc23)n1 | > 10000 | > 10000 | > 10000 |  |  |  |  |  |  |  |  |  |
| C=CC(=O)N1CCC[C@H](n2c(Nc3ccccc3)nc3cnc(Nc4ccc(N5CCN(CC(=O)NCCCCCC(=O)N[C@H](C(=O)N6C[C@H](O)C[C@H]6C(=O)NCc6ccc(-c7scnc7C)cc6)C(C)(C)C)CC5)cc4)nc32)C1 |  | 250 | 36.5 | 23 |  |  |  |  | < 20 | 46 | 60 |  |
| C=CC(=O)N1CC[C@@H](n2c(Nc3ccccc3)nc3cnc(Nc4ccc(N5CCN(CCCCCCC(=O)N[C@H](C(=O)N6C[C@H](O)C[C@H]6C(=O)NCc6ccc(-c7scnc7C)cc6)C(C)(C)C)CC5)cc4)nc32)C1 |  | 550 |  |  |  |  |  |  |  |  |  | 12.4 |
| C=CC(=O)N1CCC[C@@H](n2c(Nc3ccccc3)nc3cnc(Nc4ccc(N5CCN(CCCCCCCC(=O)N[C@H](C(=O)N6C[C@H](O)C[C@H]6C(=O)N[C@@H](C)c6ccc(-c7scnc7C)cc6)C(C)(C)C)CC5)cc4)nc32)C1 |  | 1060 |  |  |  |  |  |  |  |  |  | 6.49 |
| C=CC(=O)N1CCC[C@H](n2c(Nc3ccccc3)nc3cnc(Nc4ccc(N5CCN(CCCCCCCC(=O)N[C@H](C(=O)N6C[C@@H](O)C[C@H]6C(=O)N[C@@H](C)c6ccc(-c7scnc7C)cc6)C(C)(C)C)CC5)cc4)nc32)C1 |  | 41 | 1.83 |  |  |  |  |  |  |  |  |  |
| C=CC(=O)Nc1cc(Nc2nccc(-c3cn(C)c4ccccc34)n2)c(OC)cc1N(C)CCN(C)CC(=O)NCCOCCOCC(=O)N[C@H](C(=O)N1C[C@H](O)C[C@H]1C(=O)NCc1ccc(-c2scnc2C)cc1)C(C)(C)C |  | 2370 | 768 |  |  |  |  |  |  |  |  |  |
| C=CC(=O)N1CCC[C@H](n2c(Nc3ccccc3)nc3cnc(Nc4ccc(N5CCN(CC(=O)NCCOCCOCC(=O)N[C@H](C(=O)N6C[C@H](O)C[C@H]6C(=O)NCc6ccc(-c7scnc7C)cc6)C(C)(C)C)CC5)cc4)nc32)C1 |  | 282 | 59.6 | < 20 |  |  |  |  | < 20 | 50 | 57 |  |
| C=CC(=O)N1CCC[C@@H](n2c(Nc3ccccc3)nc3cnc(Nc4ccc(N5CCN(C)CC5)cc4)nc32)C1 |  | 266 | 1.77 |  |  |  |  |  |  |  |  |  |
| C=CC(=O)N1CCC[C@H](n2c(Nc3ccccc3)nc3cnc(Nc4ccc(N5CCN(CC(=O)NCCCCCCC(=O)N[C@H](C(=O)N6C[C@H](O)C[C@H]6C(=O)NCc6ccc(-c7scnc7C)cc6)C(C)(C)C)CC5)cc4)nc32)C1 |  | 127 | 8.93 | < 20 |  |  |  |  | < 20 | 63 | 77 |  |
| C=CC(=O)N1CC[C@H](n2c(Nc3ccccc3)nc3cnc(Nc4ccc(N5CCN(CCCCCCC(=O)N[C@H](C(=O)N6C[C@H](O)C[C@H]6C(=O)NCc6ccc(-c7scnc7C)cc6)C(C)(C)C)CC5)cc4)nc32)C1 |  | 44 | 1.66 | 79 |  |  |  | > 10000 | 38 | 65 | 81 | 1.86 |
| C=CC(=O)N1CCC[C@H](n2c(Nc3ccccc3)nc3cnc(Nc4ccc(N5CCN(CCCCCCC(=O)N[C@H](C(=O)N6C[C@H](O)C[C@H]6C(=O)NCc6ccc(-c7scnc7C)cc6)C(C)(C)C)CC5)cc4)nc32)C1 |  | 40 | 1.67 | 69 |  |  |  | > 10000 | 49 | 62 | 70 |  |
| COc1cc(N(C)CCN(C)C)c(NC(=O)/C=C/CN(C)CCCCCCCCCC(=O)N[C@H](C(=O)N2C[C@H](O)C[C@H]2C(=O)NCc2ccc(-c3scnc3C)cc2)C(C)(C)C)cc1Nc1nccc(-c2cn(C)c3ccccc23)n1 |  | 985 | 61 | < 20 | < 20 | < 20 | 30 | 840 |  |  |  |  |
| COc1cc(N2CCN(CC(=O)NCCCCCCC(=O)N[C@H](C(=O)N3C[C@H](O)C[C@H]3C(=O)NCc3ccc(-c4scnc4C)cc3)C(C)(C)C)CC2)c(NC(=O)/C(C#N)=C/c2ccncc2)cc1Nc1nccc(-c2cn(C)c3ccccc23)n1 | > 10000 | > 10000 | > 10000 |  |  |  |  |  |  |  |  |  |
